The text below walks through data of PubChem BioAssay (NCI).

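How tested: cells in 96-well plates exposed to compound for 48 hours at five concentrations. Here, GI50 denotes the concentration required for 50% inhibition of growth. TGI: total growth inhibition.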

Some test systems named below: OVCAR-4 ovarian; HOP-62 NSCLC; A498 renal; COLO 205 colon; SF-295 CNS; MOLT-4 leukemia; NCI-H522 lung; MDA-MB-435; MDA-MB-231 breast; BT-549 breast.
What all share (experiment): NCI tumour cell line growth inhibition, 48 h

As for `C#CCNC(=O)ON1C(=O)CCC1=O`, the TGI in the test with OVCAR-4 ovarian, in the test with HOP-62 NSCLC, with A498 renal, with COLO 205 colon, in the test on SF-295 CNS and with MOLT-4 leukemia was over 100 µM each time. This compound also came in with a TGI with NCI-H522 lung of over 100 µM.

In the case of `CN(C)/C=N\c1ccnc(=O)[nH]1`, the TGI in the test on OVCAR-4 ovarian, with HOP-62 NSCLC, in the test on A498 renal, in the test with COLO 205 colon, with SF-295 CNS and in the test with NCI-H522 lung was over 100 µM in each case.

For the compound `N#C/C(=C\c1cccc(O)c1O)C(N)=O`, the TGI in the test with OVCAR-4 ovarian is over 100 µM; in the test with HOP-62 NSCLC it was over 100 µM; in the test on A498 renal, over 100 µM; in the test on COLO 205 colon, 77.7 µM; in the test with SF-295 CNS, over 100 µM; with MOLT-4 leukemia, over 100 µM. Further, the TGI with NCI-H522 lung was 58.4 µM.

Consider `Cc1c(C(=O)/C=C/C=C/c2ccccc2)[n+](=O)c2ccccc2n1[O-]`, for which the TGI with OVCAR-4 ovarian was over 100 µM; with HOP-62 NSCLC, 54.5 µM; in the test on A498 renal it was over 100 µM; in the test with COLO 205 colon, over 100 µM; in the test on SF-295 CNS, over 100 µM; in the test on MOLT-4 leukemia, over 100 µM. The compound also yielded a TGI with NCI-H522 lung of 32 µM.

`Cl/C(N=Nc1ccccc1)=N/Nc1ccccc1`: the TGI in the test with OVCAR-4 ovarian, in the test with HOP-62 NSCLC, in the test on A498 renal, in the test with COLO 205 colon, in the test with SF-295 CNS and with MOLT-4 leukemia was over 100 µM in each case. For the same compound, in the test with NCI-H522 lung, the TGI was over 100 µM.

In the case of `CCc1cccc(C)c1N1C(=O)C(=O)C(c2nc3ccccc3o2)C(=O)C1=O`, the TGI with OVCAR-4 ovarian, in the test on HOP-62 NSCLC, with A498 renal, in the test with COLO 205 colon, in the test with SF-295 CNS and with MOLT-4 leukemia was over 100 µM throughout. For the same compound, the TGI with NCI-H522 lung was over 100 µM.

Take `COc1ccc(OC(C(=O)O)C(C)C)c2c1CCCC2=O` (centres undefined): the TGI in the test with OVCAR-4 ovarian, with HOP-62 NSCLC, with A498 renal, in the test on COLO 205 colon, in the test on SF-295 CNS and with MOLT-4 leukemia was over 100 µM in each case. Moreover, the TGI in the test on NCI-H522 lung was over 100 µM.

Regarding `O=C1OC(c2ccccc2)=N/C1=C\c1ccc(Oc2ccc(Cl)c(Cl)c2)cc1`, the TGI in the test with HOP-62 NSCLC was over 100 µM; in the test on A498 renal, over 100 µM; in the test on COLO 205 colon it was over 100 µM; in the test on SF-295 CNS, over 100 µM; with MOLT-4 leukemia it was 60.6 µM; in the test with NCI-H522 lung it was over 100 µM.

Turning to `Cc1c2c(cc3c1C(=O)C(=O)C1=C3OC[C@@H]1C)C(C)(C)CCC2`, the TGI with OVCAR-4 ovarian is 51.8 µM; in the test with HOP-62 NSCLC, 36.4 µM; in the test on A498 renal it was 59.6 µM; in the test with COLO 205 colon, 20.4 µM; in the test on SF-295 CNS it was 27.8 µM; in the test on MOLT-4 leukemia, 32 µM.

On to `O=C(O)c1cc(=O)c2c([nH]c3ccccc32)s1`, for which the TGI with OVCAR-4 ovarian, in the test with HOP-62 NSCLC, in the test with COLO 205 colon, in the test with SF-295 CNS, in the test on MOLT-4 leukemia and in the test on NCI-H522 lung was over 100 µM in each case.

In the case of `O=[N+]([O-])c1cccc(-c2nc(-c3ccccc3)c(-c3ccccc3)[nH]2)c1`, the TGI in the test with HOP-62 NSCLC, in the test on A498 renal, in the test with COLO 205 colon, in the test with SF-295 CNS, with MOLT-4 leukemia and in the test on NCI-H522 lung was over 100 µM throughout. Also, the TGI in the test with MDA-MB-435 and with MDA-MB-231 breast was over 100 µM throughout.

For `[O-]c1ccccc1C=Nc1ccc2c(c1)CCC2.[O-]c1ccccc1C=Nc1ccc2c(c1)CCC2.[O]=[U+2]=[O]`, the GI50 in the test with OVCAR-4 ovarian is over 100 µM; in the test with HOP-62 NSCLC, over 100 µM; in the test on A498 renal it was over 100 µM; in the test with COLO 205 colon, 55.2 µM; in the test on SF-295 CNS it was over 100 µM; with MOLT-4 leukemia, 12.4 µM. In the test on NCI-H522 lung, the GI50 is over 100 µM. Further, the TGI with OVCAR-4 ovarian, in the test on HOP-62 NSCLC, with A498 renal, in the test on COLO 205 colon, with SF-295 CNS and with MOLT-4 leukemia was over 100 µM each time. The TGI in the test with NCI-H522 lung is over 100 µM.

Consider `O=c1nc(-c2ccccc2)cc(CC(O)c2ccc(Cl)c(Cl)c2)[nH]1` (centres undefined), for which the TGI in the test with OVCAR-4 ovarian is over 100 µM; in the test on HOP-62 NSCLC, over 100 µM; in the test with A498 renal, 77.2 µM; in the test with COLO 205 colon, 31.7 µM; with SF-295 CNS, over 100 µM; in the test with MOLT-4 leukemia, over 100 µM. The TGI with NCI-H522 lung came to 90.8 µM.

On to `COc1ccc(C(=O)c2cc3c(N)c(C(=O)Nc4ccccc4)sc3nc2C)cc1`, for which the GI50 is 16.1 µM in the test on OVCAR-4 ovarian; 1.69 µM in the test on HOP-62 NSCLC; 0.184 µM in the test on A498 renal; 1.42 µM in the test on COLO 205 colon; 0.639 µM in the test on SF-295 CNS; 0.796 µM in the test on MOLT-4 leukemia. Further, the GI50 in the test with NCI-H522 lung was 1.89 µM; with BT-549 breast, 38.6 µM; in the test on MDA-MB-231 breast, 2.43 µM. The TGI is over 100 µM in the test on OVCAR-4 ovarian; over 100 µM with HOP-62 NSCLC; 0.645 µM in the test with A498 renal; over 100 µM in the test on COLO 205 colon; over 100 µM in the test with SF-295 CNS; over 100 µM in the test with MOLT-4 leukemia. Besides, the TGI in the test with NCI-H522 lung, in the test with BT-549 breast and in the test with MDA-MB-231 breast was over 100 µM each time.

On to `COc1ccc(Nc2nc3ccccc3c3occc23)cc1`, for which the GI50 is 9.2 µM in the test on OVCAR-4 ovarian; 10 µM in the test on HOP-62 NSCLC; 7.71 µM in the test on COLO 205 colon; 6.64 µM in the test with SF-295 CNS; 14.5 µM in the test on NCI-H522 lung; 1.63 µM in the test on MDA-MB-435. Also, the GI50 in the test with BT-549 breast is 6.08 µM; in the test on MDA-MB-231 breast, 1.34 µM. The TGI came to 39.7 µM in the test on OVCAR-4 ovarian; 23.7 µM in the test with HOP-62 NSCLC; 18.6 µM with COLO 205 colon; 13.2 µM with SF-295 CNS; 33 µM in the test with NCI-H522 lung; 5.59 µM in the test on MDA-MB-435. In addition, the TGI in the test on BT-549 breast amounted to 13.5 µM; in the test with MDA-MB-231 breast it was 10.3 µM.
